#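 Where inhibition never reached the appropriate level, the endpoint shown equals the highest concentration tested. Otherwise, values were interpolated linearly from a five-concentration, 48-hour dose response in 96-well plates. Here, GI50 denotes the concentration required for 50% inhibition of growth.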 Active and inactive are the calls of the source. No stated cut-off is given here; in the data, active = GI50 up to about 1.1 µM and inactive = higher.
# Tests used:
# Experiment in all cases: growth of human tumour cells (NCI), 48 h
# [1] = system: NCI-H226
# [2] = system: SF-295
# [3] = system: LOX IMVI
# [4] = system: SN12C
# [5] = system: SF-268
# [6] = system: DU-145
# [7] = system: UO-31
# [8] = system: SNB-19
# [9] = system: RPMI-8226
# [10] = system: SK-MEL-2
# [11] = system: SR
# [12] = system: SNB-75
# [13] = system: HCT-116
# [14] = system: A549
# [15] = system: M14
# [16] = system: Hs-578T
# [17] = system: SK-OV-3
# [18] = system: K562
# [19] = system: HT-29
# [20] = system: NCI-H522
# [21] = system: IGROV-1
# [22] = system: BT-549
# [23] = system: SW-620
# [24] = system: RXF 393
# [25] = system: T47D
# [26] = system: UACC-62
# [27] = system: MDA-MB-435
# [28] = system: MDA-MB-231
# [29] = system: COLO 205
# [30] = system: NCI-H460
# [31] = system: HOP-62
# [32] = system: OVCAR-8
# [33] = system: PC-3
# [34] = system: SF-539
# [35] = system: HL-60
# [36] = system: HOP-92
# [37] = system: Malme-3M
# [38] = system: KM12
# [39] = system: SK-MEL-5
# [40] = system: OVCAR-5
# [41] = system: UACC-257
# [42] = system: OVCAR-4
# [43] = system: OVCAR-3
# [44] = system: NCI/ADR-RES
# [45] = system: MCF7
# [46] = system: A498
# [47] = system: ACHN
# [48] = system: CAKI-1
# [49] = system: MOLT-4
# [50] = system: NCI-H23
# [51] = system: SK-MEL-28
# [52] = system: 786-0
# [53] = system: U-251
# [54] = system: HCT-15
# [55] = system: TK-10
# [56] = system: CCRF-CEM
# [57] = system: EKVX
# [58] = system: HCC 2998
# [59] = system: MDA-N
structure (smiles),measurement,setting,value
O=C(CC(Cl)(Cl)C(Cl)(Cl)Cl)c1ccccc1,GI50,[1],3.63 µM (inactive)
same,GI50,[2],1.78 µM (inactive)
same,GI50,[3],1.83 µM (inactive)
same,GI50,[4],0.59 µM (active)
same,GI50,[5],11.7 µM (inactive)
same,GI50,[6],3.01 µM (inactive)
same,GI50,[7],3.94 µM (inactive)
same,GI50,[8],17.4 µM (inactive)
same,GI50,[9],3.45 µM (inactive)
same,GI50,[10],10.1 µM (inactive)
same,GI50,[11],2.04 µM (inactive)
same,GI50,[12],15.3 µM (inactive)
same,GI50,[13],2.1 µM (inactive)
same,GI50,[14],17.8 µM (inactive)
same,GI50,[15],2.62 µM (inactive)
same,GI50,[16],3.76 µM (inactive)
same,GI50,[17],18.4 µM (inactive)
same,GI50,[18],2.09 µM (inactive)
same,GI50,[19],2.06 µM (inactive)
same,GI50,[20],2.65 µM (inactive)
same,GI50,[21],4.84 µM (inactive)
same,GI50,[22],10.7 µM (inactive)
same,GI50,[23],3.51 µM (inactive)
same,GI50,[24],1.96 µM (inactive)
same,GI50,[25],2.73 µM (inactive)
same,GI50,[26],2.74 µM (inactive)
same,GI50,[27],2.23 µM (inactive)
same,GI50,[28],2.11 µM (inactive)
same,GI50,[29],3.24 µM (inactive)
same,GI50,[30],12 µM (inactive)
same,GI50,[31],4.21 µM (inactive)
same,GI50,[32],2.59 µM (inactive)
same,GI50,[33],14.4 µM (inactive)
same,GI50,[34],16.2 µM (inactive)
same,GI50,[35],8.99 µM (inactive)
same,GI50,[36],19.9 µM (inactive)
same,GI50,[37],2.71 µM (inactive)
same,GI50,[38],4.18 µM (inactive)
same,GI50,[39],12 µM (inactive)
same,GI50,[40],11.2 µM (inactive)
same,GI50,[41],1.78 µM (inactive)
same,GI50,[42],2.22 µM (inactive)
same,GI50,[43],1.85 µM (inactive)
same,GI50,[44],5.26 µM (inactive)
same,GI50,[45],3.65 µM (inactive)
same,GI50,[46],18.4 µM (inactive)
same,GI50,[47],2.27 µM (inactive)
same,GI50,[48],2.3 µM (inactive)
same,GI50,[49],3.17 µM (inactive)
same,GI50,[50],3.88 µM (inactive)
same,GI50,[51],2.2 µM (inactive)
same,GI50,[52],3.01 µM (inactive)
same,GI50,[53],4.7 µM (inactive)
same,GI50,[54],2.17 µM
same,GI50,[55],6.1 µM (inactive)
COC1OC(Cc2nnc(C)o2)C(OCc2ccccc2)C(OCc2ccccc2)C1OCc1ccccc1 (stereo not given),GI50,[1],29.5 µM (inactive)
same,GI50,[2],18.9 µM (inactive)
same,GI50,[3],20.1 µM (inactive)
same,GI50,[4],28.3 µM (inactive)
same,GI50,[5],21.5 µM (inactive)
same,GI50,[6],40.8 µM (inactive)
same,GI50,[7],33.1 µM (inactive)
same,GI50,[8],57.8 µM (inactive)
same,GI50,[9],32.4 µM (inactive)
same,GI50,[10],14.5 µM (inactive)
same,GI50,[11],13.2 µM (inactive)
same,GI50,[12],74.3 µM (inactive)
same,GI50,[13],37.4 µM (inactive)
same,GI50,[14],27.2 µM (inactive)
same,GI50,[56],21.7 µM (inactive)
same,GI50,[15],31 µM (inactive)
same,GI50,[16],43 µM (inactive)
same,GI50,[17],77.4 µM (inactive)
same,GI50,[18],20.9 µM (inactive)
same,GI50,[19],26.4 µM (inactive)
same,GI50,[20],19.4 µM (inactive)
same,GI50,[21],13.9 µM (inactive)
same,GI50,[22],25.7 µM (inactive)
same,GI50,[23],40.1 µM (inactive)
same,GI50,[24],18.3 µM (inactive)
same,GI50,[25],52.5 µM (inactive)
same,GI50,[26],17 µM (inactive)
same,GI50,[27],19.7 µM (inactive)
same,GI50,[28],36.1 µM (inactive)
same,GI50,[29],20.7 µM (inactive)
same,GI50,[30],26.4 µM (inactive)
same,GI50,[31],52.1 µM (inactive)
same,GI50,[34],38.3 µM (inactive)
same,GI50,[35],26.2 µM (inactive)
same,GI50,[36],35.3 µM (inactive)
same,GI50,[37],15.5 µM (inactive)
same,GI50,[38],15.8 µM (inactive)
same,GI50,[39],16.3 µM (inactive)
same,GI50,[40],41.2 µM (inactive)
same,GI50,[41],17.2 µM (inactive)
same,GI50,[42],41.4 µM (inactive)
same,GI50,[43],18.3 µM (inactive)
same,GI50,[44],24.3 µM (inactive)
same,GI50,[45],20.3 µM (inactive)
same,GI50,[46],50.9 µM (inactive)
same,GI50,[47],26.6 µM (inactive)
same,GI50,[48],35.6 µM (inactive)
same,GI50,[49],16 µM (inactive)
same,GI50,[50],19.9 µM (inactive)
same,GI50,[57],12.7 µM (inactive)
same,GI50,[51],22.9 µM (inactive)
same,GI50,[52],40.6 µM (inactive)
same,GI50,[53],38.4 µM (inactive)
same,GI50,[54],35.9 µM
Cc1cc(=O)nc(S(=O)(=O)NC(=S)Nc2ccc(Br)cc2)[nH]1,GI50,[1],> 100 µM (inactive)
same,GI50,[2],> 100 µM (inactive)
same,GI50,[4],> 100 µM (inactive)
same,GI50,[5],> 100 µM (inactive)
same,GI50,[6],> 100 µM (inactive)
same,GI50,[7],> 100 µM (inactive)
same,GI50,[8],> 100 µM (inactive)
same,GI50,[9],33.4 µM (inactive)
same,GI50,[10],> 100 µM (inactive)
same,GI50,[12],> 100 µM (inactive)
same,GI50,[15],> 100 µM (inactive)
same,GI50,[16],> 100 µM (inactive)
same,GI50,[17],> 100 µM (inactive)
same,GI50,[19],> 100 µM (inactive)
same,GI50,[20],18.6 µM (inactive)
same,GI50,[21],73.1 µM (inactive)
same,GI50,[22],> 100 µM (inactive)
same,GI50,[23],> 100 µM (inactive)
same,GI50,[24],20.5 µM (inactive)
same,GI50,[25],> 100 µM (inactive)
same,GI50,[26],> 100 µM (inactive)
same,GI50,[27],> 100 µM (inactive)
same,GI50,[58],> 100 µM (inactive)
same,GI50,[28],> 100 µM (inactive)
same,GI50,[29],> 100 µM (inactive)
same,GI50,[30],> 100 µM (inactive)
same,GI50,[31],> 100 µM (inactive)
same,GI50,[32],> 100 µM (inactive)
same,GI50,[33],> 100 µM (inactive)
same,GI50,[34],> 100 µM (inactive)
same,GI50,[35],> 100 µM (inactive)
same,GI50,[36],21 µM (inactive)
same,GI50,[37],> 100 µM (inactive)
same,GI50,[39],> 100 µM (inactive)
same,GI50,[40],> 100 µM (inactive)
same,GI50,[41],> 100 µM (inactive)
same,GI50,[42],93.5 µM (inactive)
same,GI50,[43],> 100 µM (inactive)
same,GI50,[44],> 100 µM (inactive)
same,GI50,[46],> 100 µM (inactive)
same,GI50,[47],> 100 µM (inactive)
same,GI50,[48],65.6 µM (inactive)
same,GI50,[49],36 µM (inactive)
same,GI50,[50],> 100 µM (inactive)
same,GI50,[57],42.1 µM (inactive)
same,GI50,[51],> 100 µM (inactive)
same,GI50,[52],> 100 µM (inactive)
same,GI50,[53],> 100 µM (inactive)
same,GI50,[54],75.9 µM
same,GI50,[55],> 100 µM (inactive)
C=C(Cl)C(C)(Cl)CCC(Br)C(C)(C)Cl (stereo not given),GI50,[1],41.8 µM (inactive)
same,GI50,[2],29.1 µM (inactive)
same,GI50,[3],13.3 µM (inactive)
same,GI50,[4],16.7 µM (inactive)
same,GI50,[5],33.2 µM (inactive)
same,GI50,[6],20.9 µM (inactive)
same,GI50,[7],15.4 µM (inactive)
same,GI50,[8],51.5 µM (inactive)
same,GI50,[9],13.2 µM (inactive)
same,GI50,[10],19.3 µM (inactive)
same,GI50,[11],21.9 µM (inactive)
same,GI50,[12],12.3 µM (inactive)
same,GI50,[13],15.2 µM (inactive)
same,GI50,[14],29.9 µM (inactive)
same,GI50,[56],19.4 µM (inactive)
same,GI50,[15],20 µM (inactive)
same,GI50,[16],21.2 µM (inactive)
same,GI50,[17],12.7 µM (inactive)
same,GI50,[18],33.9 µM (inactive)
same,GI50,[19],15.8 µM (inactive)
same,GI50,[20],11.2 µM (inactive)
same,GI50,[21],28.8 µM (inactive)
same,GI50,[22],20.6 µM (inactive)
same,GI50,[23],16.9 µM (inactive)
same,GI50,[24],13.9 µM (inactive)
same,GI50,[26],14.9 µM (inactive)
same,GI50,[27],19.4 µM (inactive)
same,GI50,[58],19.5 µM (inactive)
same,GI50,[28],15.2 µM (inactive)
same,GI50,[29],17.3 µM (inactive)
same,GI50,[30],26 µM (inactive)
same,GI50,[31],22 µM (inactive)
same,GI50,[33],25.6 µM (inactive)
same,GI50,[34],27.8 µM (inactive)
same,GI50,[35],37.1 µM (inactive)
same,GI50,[36],18.8 µM (inactive)
same,GI50,[37],17.1 µM (inactive)
same,GI50,[38],21.9 µM (inactive)
same,GI50,[39],16.9 µM (inactive)
same,GI50,[40],21.5 µM (inactive)
same,GI50,[41],15.9 µM (inactive)
same,GI50,[42],16.2 µM (inactive)
same,GI50,[43],18.2 µM (inactive)
same,GI50,[44],29.4 µM (inactive)
same,GI50,[45],16.6 µM (inactive)
same,GI50,[46],41.5 µM (inactive)
same,GI50,[47],17.5 µM (inactive)
same,GI50,[48],25.4 µM (inactive)
same,GI50,[49],28.4 µM (inactive)
same,GI50,[50],19.1 µM (inactive)
same,GI50,[57],47.2 µM (inactive)
same,GI50,[59],15.8 µM (inactive)
same,GI50,[51],21.2 µM (inactive)
same,GI50,[52],17.5 µM (inactive)
same,GI50,[53],15.9 µM (inactive)
same,GI50,[55],> 100 µM (inactive)

# — ChEMBL document CHEMBL1201862, “PubChem BioAssay data set” (2004)
